Ends that are not written are not given here.
Key:
[1] = system: volunteers; assay: Clinical test: wrinkle and fine line measurement by QUANTIRIDE; assay type: in vivo, human; design: Depth of wrinkles, Measurement / Number of wrinkles, Measurement: unit not given here; details: D 23-D 0, 2 mg/cm^2 twice a day, 12 volunteers
Procedure: 12 volunteers aged from 29 to 56 years applied either a placebo or the peptidic active principle of sequence ID No. 1 twice a day, morning and night, at a dose of 2 mg/cm^2 for 24 days. A clinical evaluation of the results enabled several wrinkle and fine line parameters to be measured.
The wrinkle and fine line measurement was carried out by QUANTIRIDE, which is an evaluation method that enables the number, length and depth of wrinkles to be measured by making a replica of the skin before and after treatment by using a silicone polymer.

[2] = target: T1, 20S proteasome (Homo sapiens, UniProt P28072+P28074+Q99436); assay: Enzymatic activity of 20S proteasome on aged keratinocytes maintained in culture (AMC-labeled substrates); assay type: cell-based; details: 15 days culture, 1% peptide
T1 construct: After incubation of the cellular lysate with the synthetic substrate specific for the activity studied; endogenous in cells; host or cells: experimentally aged normal human keratinocytes (NHK) from human skin biopsies; activity measured in the cell lysate
Procedure: (§1) Normal Human Keratinocyte (NHK), cells are isolated from human skin biopsies. These cells are maintained in culture in a special keratinocyte-SFM medium (Invitrogen) at 37° C. under a humidified atmosphere of 5% CO2. Aged NHK cells are obtained by performing a series of repeated sub-cultures. Briefly the cells are seeded in 75 cm^2 flasks, at low density and cultured from 5 to 10 days between 2 passages. The cells are treated or not treated by the active principle, by adding the active principle directly into the culture medium 3 times per week. The cells are then maintained under these conditions for 45 days.
Experimentally aged keratinocytes maintained in culture for 15 days are treated with 1% of peptide SEQ ID No. 1. The enzymatic activities of 20S proteasome are then studied. In fact, 20S proteasome is the subunit responsible for enzymatic hydrolysis. Three enzymatic activities may be studied: Trypsin-like, chymotrypsin-like and peptidylglutamyl-peptide hydrolase (PGPH) activity. We are proposing to study these activities by a specific enzymatic assay of each activity.
The aged keratinocytes are maintained in culture for 15 days. The cell treatment is carried out by adding a solution at 1% of peptide SEQ ID No. 1 directly into the medium, renewed 3 times per week for the time of the experiment.
The assay of each activity was carried out by utilizing specific substrates labeled by a fluorescent compound 7-amido-4-methylcoumarin (AMC). After cleavage, the AMC excitation wavelength is 350 nm, the fluorescence is read at 440 nm. The fluorescence intensity is proportional to the quantity of fluorochrome obtained and consequently, this quantity is proportional to the quantity of hydrolyzed substrate.
The synthetic peptide Boc-Leu-Arg-Arg-AMC is specific for trypsin activity. […]
The cells are detached from the support in an extraction buffer. […] After incubation of the cellular lysate with the synthetic substrate specific for the activity studied, fluorescence is read with the Synergy spectrophotometer (BIOTEK, Vermont, USA) at 440 nm.

[3] = system: experimentally aged keratinocytes; assay: Antiaging effect: beta-galactosidase (X-gal) labeling of experimentally aged keratinocytes in culture; assay type: cell-based, human; details: keratinocytes aged 20 days, 1% peptide 3 times per week
Procedure: as §1
A study of the antiaging effect of the active principle was carried out by evaluating the expression of the beta-galactosidase protein on experimentally aged keratinocytes in culture. In fact, beta-galactosidase activity is known to be present in senescent cells while galactosidase activity is not found in pre-senescent, quiescent or immortal cells.
Keratinocytes experimentally aged in 8-well labteck are cultured and maintained for 20 days in the presence or not of 1% peptide of SEQ ID No. 1. The treatment is carried out 3 times per week by direct addition into the medium.
Untreated cells are maintained in culture for the same experiment time and will be used as controls. […]

trypsin-like activity of 20S proteasome, increase ([2]; substrate Boc-Leu-Arg-Arg-AMC): 155.3%
chymotrypsin-like activity of 20S proteasome, increase ([2]; substrate Suc-Leu-Leu-Val-Try-AMC): 130%
peptidylglutamyl-peptide hydrolase activity of 20S proteasome, increase ([2]; substrate Z-Leu-Leu-Glu-AMC): 144.6%
Substance: Asp-Cys-Arg-NH2 [SEQ ID No. 1]
Depth of wrinkles, Measurement [1]: −6.5557
Length of wrinkles, Measurement [1]: −0.104 mm
Number of wrinkles, Measurement [1]: −9.5833
Depth of wrinkles, % of volunteers with improvement ([1]; listed as Active peptide): 75%
Length of wrinkles, % of volunteers with improvement ([1]; listed as Active peptide): 83.3%
Number of wrinkles, % of volunteers with improvement ([1]; listed as Active peptide): 75%
Depth of wrinkles, % of volunteers with improvement ([1]; listed as active principle): 75%
Length of wrinkles, % of volunteers with improvement ([1]; listed as active principle): 83.3%
Number of wrinkles, % of volunteers with improvement ([1]; listed as active principle): 75%
beta-galactosidase activity in treated cells compared to untreated cells [3]: strongly reduced
